EC50 data for 31 compounds are collected here from US12673954B2 (BRISTOL-MYERS SQUIBB COMPANY, priority 2021, dated 2026).

In experiment [1] the test system is IRF pathway, THP1-Dual™ cells. Briefly: STING reporter assay in THP1-Dual cells, IRF pathway (Lucia luciferase, QUANTI-Luc). The format is cell-based, human. To be noted: Homo sapiens, THP1-Dual, 20 h, THP1-Dual cells, 10% human plasma, 20 hours; Lucia luciferase; 100% activation = 100 μM cGAMP; read-out: IRF (EC50 μM). The method in brief:
(§1)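 THP-1-derived dual-reporter cells treated with serially diluted compounds (final top concentration 100 μM) for 20 h at 37° C. NF-κB read as SEAP via QUANTI-Blue at OD620; IRF read as Lucia luminescence via QUANTI-Luc after 5 min. 100% activation set by 100 μM cGAMP, baseline by DMSO.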

For experiment [2], the system named is NF-κB pathway, THP1-Dual™ cells. Briefly: STING reporter assay in THP1-Dual cells, NF-κB pathway (SEAP, QUANTI-Blue). The format is cell-based, human. To be noted: Homo sapiens, THP1-Dual, 20 h, THP1-Dual cells, 10% human plasma, 20 hours; SEAP; 100% activation = 100 μM cGAMP; read-out: NFkB (EC50 μM). The method in brief:
as §1

For `COC(=O)c1cc(C)cc2c(C)c(CNC(=O)c3cnn4cccnc34)oc12` [EXAMPLE 122, Methyl 3,5-dimethyl-2-((pyrazolo[1,5-a]pyrimidine-3-carboxamido)methyl)benzofuran-7-carboxylate], the results for the EC50 in experiment [1] and in experiment [2] were 0.53 µM and 0.54 µM, respectively.

With `COC(=O)c1cc(C)cc2c(C(F)(F)F)c(CNC(=O)c3cnn4cccnc34)oc12` [EXAMPLE 123, Methyl 5-methyl-2-((pyrazolo[1,5-a]pyrimidine-3-carboxamido)methyl)-3-(trifluoromethyl)benzofuran-7-carboxylate], the EC50 was 4.3 µM in experiment [1] and 5.9 µM in experiment [2].

For the compound `C=Cc1c(CNC(=O)c2cnn3cccnc23)oc2c(C(=O)OC)cc(C)cc12` [EXAMPLE 124, Methyl 5-methyl-2-((pyrazolo[1,5-a]pyrimidine-3-carboxamido)methyl)-3-vinylbenzofuran-7-carboxylate], the EC50 was determined as 5.7 µM in experiment [1] and 6.7 µM in experiment [2].

For the compound `COC(=O)c1cc(F)c(F)c2cc(CN3CCc4ccncc4C3=O)oc12` [EXAMPLE 125, Methyl 4,5-difluoro-2-((1-oxo-3,4-dihydro-2,7-naphthyridin-2(1H)-yl)methyl)benzofuran-7-carboxylate], the results for the EC50 in experiment [1] and in experiment [2] were 3.9 µM and 4.4 µM, respectively.

`COC(=O)c1c(F)c(F)cc2cc(CNC(=O)c3cnn4cccnc34)oc12` [EXAMPLE 126, Methyl 5,6-difluoro-2-((pyrazolo[1,5-a]pyrimidine-3-carboxamido)methyl)benzofuran-7-carboxylate]: the EC50 in experiment [1] is 1.4 µM; in experiment [2], 1.6 µM.

Take `COC(=O)c1c(O)c(Cl)cc2cc(CNC(=O)c3cnn4cccnc34)oc12` [EXAMPLE 127, Methyl 5-chloro-6-hydroxy-2-((pyrazolo[1,5-a]pyrimidine-3-carboxamido)methyl)benzofuran-7-carboxylate]: the EC50 in experiment [1] amounted to 4.7 µM; in experiment [2] it was 5.6 µM.

With `COc1ccn2ncc(C(=O)NCc3cc4cc(Cl)cc(C(=O)O)c4o3)c2n1` [EXAMPLE 139, 5-Chloro-2-((5-methoxypyrazolo[1,5-a]pyrimidine-3-carboxamido)methyl)benzofuran-7-carboxylic acid], the EC50 is 90 µM in experiment [1] and > 100 µM in experiment [2].

In the case of `Cc1cc(C(=O)O)c2oc(CNC(=O)c3cnn4cccnc34)cc2c1` [EXAMPLE 158, 5-methyl-2-((pyrazolo[1,5-a]pyrimidine-3-carboxamido)methyl)benzofuran-7-carboxylic acid], the values for the EC50 in experiment [1] and in experiment [2] were 63 µM and 52 µM, respectively.

As for `O=C(O)c1cc(F)cc2c(Cl)c(CNC(=O)c3cnn4cccnc34)oc12` [EXAMPLE 172, 3-chloro-5-fluoro-2-((pyrazolo[1,5-a]pyrimidine-3-carboxamido)methyl)benzofuran-7-carboxylic acid], the EC50 was found to be 62 µM in experiment [1] and 74 µM in experiment [2].

As for `O=C(O)c1cc(Cl)cc2c(Cl)c(CNC(=O)c3cnn4cccnc34)oc12` [EXAMPLE 174, 3,5-Dichloro-2-((pyrazolo[1,5-a]pyrimidine-3-carboxamido)methyl)benzofuran-7-carboxylic acid], the figures for the EC50 in experiment [1] and in experiment [2] were 83 µM and 91 µM, respectively.

As for `Cc1cc(C(=O)O)c2oc(CNC(=O)c3cnn4cc(C)cnc34)c(Cl)c2c1` [EXAMPLE 177, 3-Chloro-5-methyl-2-((6-methylpyrazolo[1,5-a]pyrimidine-3-carboxamido)methyl)benzofuran-7-carboxylic acid], the EC50 was 87 µM in experiment [1] and > 100 µM in experiment [2].

In the case of `Cc1cc(C(=O)O)c2oc(CNC(=O)c3cncc4cccnc34)c(Cl)c2c1` [EXAMPLE 178, 2-((1,6-naphthyridine-8-carboxamido)methyl)-3-chloro-5-methylbenzofuran-7-carboxylic acid], the EC50 was 42 µM in experiment [1] and 50 µM in experiment [2].

Regarding `Cc1cc(C(=O)O)c2oc(CNC(=O)c3cncc4cccnc34)cc2c1` [EXAMPLE 192, 2-((1,6-naphthyridine-8-carboxamido)methyl)-5-methylbenzofuran-7-carboxylic acid], the EC50 in experiment [1] was determined as 79 µM; in experiment [2], 94 µM.

On to `CCOC(=O)c1cccc2cc(CN3Cc4ccncc4C3=O)oc12` [EXAMPLE 203, Ethyl 2-((3-oxo-1,3-dihydro-2H-pyrrolo[3,4-c]pyridin-2-yl)methyl)benzofuran-7-carboxylate], for which the EC50 came out at 44 µM in experiment [1] and 65 µM in experiment [2].

`O=C(OCC(F)(F)F)c1cccc2cc(CN3Cc4ccncc4C3=O)oc12` [EXAMPLE 204, 2,2,2-Trifluoroethyl 2-((3-oxo-1,3-dihydro-2H-pyrrolo[3,4-c]pyridin-2-yl)methyl)benzofuran-7-carboxylate]: the values for the EC50 in experiment [1] and in experiment [2] were 32 µM and 41 µM, respectively.

For the compound `CCOC(=O)c1cccc2cc(CN3CCc4ccncc4C3=O)oc12` [EXAMPLE 205, Ethyl 2-((1-oxo-3,4-dihydro-2,7-naphthyridin-2(1H)-yl)methyl)benzofuran-7-carboxylate], the values for the EC50 in experiment [1] and in experiment [2] were 9.8 µM and 9.9 µM, respectively.

As to `CC(C)OC(=O)c1cccc2cc(CN3CCc4ccncc4C3=O)oc12` [EXAMPLE 206, Isopropyl 2-((1-oxo-3,4-dihydro-2,7-naphthyridin-2(1H)-yl)methyl)benzofuran-7-carboxylate], the EC50 was determined as 13 µM in experiment [1] and 12 µM in experiment [2].

On to `O=C(OC1CC1)c1cccc2cc(CN3CCc4ccncc4C3=O)oc12` [EXAMPLE 207, Cyclopropyl 2-((1-oxo-3,4-dihydro-2,7-naphthyridin-2(1H)-yl)methyl)benzofuran-7-carboxylate], for which the figures for the EC50 in experiment [1] and in experiment [2] were 9.2 µM and 17 µM, respectively.

For the compound `O=C(OC(C(F)(F)F)C(F)(F)F)c1cccc2cc(CN3CCc4ccncc4C3=O)oc12` [EXAMPLE 209], the values for the EC50 in experiment [1] and in experiment [2] were 18 µM and 19 µM, respectively.

Consider `O=C(OCCO)c1cccc2cc(CN3CCc4ccncc4C3=O)oc12` [EXAMPLE 211, 2-Hydroxyethyl 2-((1-oxo-3,4-dihydro-2,7-naphthyridin-2(1H)-yl)methyl)benzofuran-7-carboxylate], for which the EC50 was found to be 23 µM in experiment [1] and 31 µM in experiment [2].

In the case of `CC(F)(F)COC(=O)c1cccc2cc(CN3CCc4ccncc4C3=O)oc12` [EXAMPLE 212, 2,2-Difluoropropyl 2-((1-oxo-3,4-dihydro-2,7-naphthyridin-2(1H)-yl)methyl)benzofuran-7-carboxylate], the EC50 in experiment [1] was 52 µM; in experiment [2], 58 µM.

In the case of `O=C(OCC(F)(F)C(F)F)c1cccc2cc(CN3CCc4ccncc4C3=O)oc12` [EXAMPLE 213, 2,2,3,3-Tetrafluoropropyl 2-((1-oxo-3,4-dihydro-2,7-naphthyridin-2(1H)-yl)methyl)benzofuran-7-carboxylate], the EC50 in experiment [1] was found to be 79 µM; in experiment [2], 86 µM.

With `O=C(OCC(F)F)c1cccc2cc(CN3CCc4ccncc4C3=O)oc12` [EXAMPLE 214, 2,2-Difluoroethyl 2-((1-oxo-3,4-dihydro-2,7-naphthyridin-2(1H)-yl)methyl)benzofuran-7-carboxylate], the figures for the EC50 in experiment [1] and in experiment [2] were 8.2 µM and 9.3 µM, respectively.

As to `O=C(OCC(F)(F)F)c1cccc2cc(CN3CCc4ccncc4C3=O)oc12` [EXAMPLE 215, 2,2,2-Trifluoroethyl 2-((1-oxo-3,4-dihydro-2,7-naphthyridin-2(1H)-yl)methyl)benzofuran-7-carboxylate], the values for the EC50 in experiment [1] and in experiment [2] were 12 µM and 14 µM, respectively.

Regarding `O=C(NCc1cc2cccc(C(=O)OCC(F)(F)F)c2o1)c1cnccn1` [EXAMPLE 216, 2,2,2-Trifluoroethyl 2-((pyrazine-2-carboxamido)methyl)benzofuran-7-carboxylate], the figures for the EC50 in experiment [1] and in experiment [2] were 12 µM and 17 µM, respectively.

In the case of `O=C(OCC(F)(F)F)c1cccc2cc(CNC(=O)c3cnn4cccnc34)oc12` [EXAMPLE 217, 2,2,2-Trifluoroethyl 2-((pyrazolo[1,5-a]pyrimidine-3-carboxamido)methyl)benzofuran-7-carboxylate], the EC50 was found to be 1.3 µM in experiment [1] and 1.6 µM in experiment [2].

On to `CC(OC(=O)c1cccc2cc(CNC(=O)c3cnn4cccnc34)oc12)C(F)(F)F` (centres unmarked) [EXAMPLE 218, 1,1,1-Trifluoropropan-2-yl 2-((pyrazolo[1,5-a]pyrimidine-3-carboxamido)methyl)benzofuran-7-carboxylate], for which the results for the EC50 in experiment [1] and in experiment [2] were 5.5 µM and 4.4 µM, respectively.

Consider `Cc1ccn2ncc(C(=O)NCc3cc4cccc(C(=O)OCC(F)(F)F)c4o3)c2n1` [EXAMPLE 219, 2,2,2-Trifluoroethyl 2-((5-methylpyrazolo[1,5-a]pyrimidine-3-carboxamido)methyl)benzofuran-7-carboxylate], for which the EC50 in experiment [1] worked out at 7.7 µM; in experiment [2], 10 µM.

For `Cc1cnc2c(C(=O)NCc3cc4cccc(C(=O)OCC(F)(F)F)c4o3)cnn2c1` [EXAMPLE 220, 2,2,2-Trifluoroethyl 2-((6-methylpyrazolo[1,5-a]pyrimidine-3-carboxamido)methyl)benzofuran-7-carboxylate], the EC50 in experiment [1] was 3.8 µM; in experiment [2], 4.8 µM.

As to `Cc1ccnc2c(C(=O)NCc3cc4cccc(C(=O)OCC(F)(F)F)c4o3)cnn12` [EXAMPLE 221, 2,2,2-Trifluoroethyl 2-((7-methylpyrazolo[1,5-a]pyrimidine-3-carboxamido)methyl)benzofuran-7-carboxylate], the EC50 was determined as 42 µM in experiment [1] and 83 µM in experiment [2].

Take `O=C(OCC(F)(F)F)c1cccc2c(Cl)c(CNC(=O)c3cnn4cccnc34)oc12` [EXAMPLE 223, 2,2,2-Trifluoroethyl 3-chloro-2-((pyrazolo[1,5-a]pyrimidine-3-carboxamido)methyl)benzofuran-7-carboxylate]: the EC50 in experiment [1] is 0.67 µM; in experiment [2], 0.62 µM.
